# Reference: patent US12583884B2, “3beta-(benzyloxy)-17alpha-methyl-pregn-5-en-20-one for use in the treatment of cognitive disorders” (AELIS FARMA, priority 2018, dated 2026)
# Where two headings read alike, the source gives them in different places.
# Columns and labels:
# Adenosine A1 = biological target: T1, Adenosine A1 (Homo sapiens, UniProt P30542); experiment: CEREP binding profile: A1
# T1 construct: CEREP
# Description: (§1) The CEREP High-throughput profile consists of a broad collection of 80 transmembrane and soluble receptors, ion channels and G-Protein coupled receptors.
# Adrenergic beta2 = biological target: T2, Adrenergic beta2 (Homo sapiens, UniProt P07550); experiment: CEREP binding profile: beta2
# T2 construct: CEREP
# Description: as §1
# Angiotensin-II AT1 = biological target: T3, Angiotensin-II AT1 (Homo sapiens, UniProt P30556); experiment: CEREP binding profile: AT1
# T3 construct: CEREP
# Description: as §1
# Angiotensin-II AT2 = biological target: T4, Angiotensin-II AT2 (Homo sapiens, UniProt P50052); experiment: CEREP binding profile: AT2
# T4 construct: CEREP
# T4 sequence (P50052 whole entry): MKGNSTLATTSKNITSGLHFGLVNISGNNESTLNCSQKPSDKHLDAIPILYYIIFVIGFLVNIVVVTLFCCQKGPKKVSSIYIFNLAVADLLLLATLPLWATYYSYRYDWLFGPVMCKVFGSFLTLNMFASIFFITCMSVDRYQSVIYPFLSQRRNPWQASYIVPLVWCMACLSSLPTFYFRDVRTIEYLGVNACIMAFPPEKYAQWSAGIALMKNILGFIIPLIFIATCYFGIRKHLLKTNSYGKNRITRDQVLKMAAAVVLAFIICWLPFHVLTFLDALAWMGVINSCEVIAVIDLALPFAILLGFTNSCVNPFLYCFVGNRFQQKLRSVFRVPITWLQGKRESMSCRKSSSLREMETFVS
# Description: as §1
# Bombesin BB = experiment: CEREP binding profile: BB; conditions: 10 μM
# Description: as §1
# Bradykinin B2 = biological target: T5, Bradykinin B2 (Homo sapiens, UniProt P30411); experiment: CEREP binding profile: B2
# T5 construct: CEREP
# T5 sequence (P30411 whole entry): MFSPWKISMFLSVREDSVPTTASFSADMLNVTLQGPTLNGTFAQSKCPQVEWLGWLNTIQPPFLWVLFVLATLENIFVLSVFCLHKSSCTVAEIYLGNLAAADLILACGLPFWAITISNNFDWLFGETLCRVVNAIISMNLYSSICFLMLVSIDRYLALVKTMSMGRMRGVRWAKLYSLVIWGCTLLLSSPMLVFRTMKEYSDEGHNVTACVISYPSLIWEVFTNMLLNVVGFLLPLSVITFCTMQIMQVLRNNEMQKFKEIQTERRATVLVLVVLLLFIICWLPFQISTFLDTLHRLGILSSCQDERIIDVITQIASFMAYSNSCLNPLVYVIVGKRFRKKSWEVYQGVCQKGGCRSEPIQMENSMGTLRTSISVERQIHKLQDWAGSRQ
# Description: as §1
# Chemokines CXCR2 = biological target: T6, Chemokines CXCR2 (Homo sapiens, UniProt P25025); experiment: CEREP binding profile: CXCR2
# T6 construct: CEREP
# Description: as §1
# Endothelin ETA = biological target: T7, Endothelin ETA (Homo sapiens, UniProt P25101); experiment: CEREP binding profile: ETA
# T7 construct: CEREP
# Description: as §1
# Endothelin ETB = biological target: T8, Endothelin ETB (Homo sapiens, UniProt P24530); experiment: CEREP binding profile: ETB
# T8 construct: CEREP
# Description: as §1
# Melatonin MT1 (ML1A) = Melatonin MT1 (ML1A) (Homo sapiens, UniProt P48039); experiment: CEREP binding profile: MT1
# Description: as §1
# Muscarinic M1 = Muscarinic M1 (Homo sapiens, UniProt P11229); experiment: CEREP binding profile: M1
# Description: as §1
# Muscarinic M2 = Muscarinic M2 (Homo sapiens, UniProt P08172); experiment: CEREP binding profile: M2
# Chain of Muscarinic M2 (P08172 whole entry): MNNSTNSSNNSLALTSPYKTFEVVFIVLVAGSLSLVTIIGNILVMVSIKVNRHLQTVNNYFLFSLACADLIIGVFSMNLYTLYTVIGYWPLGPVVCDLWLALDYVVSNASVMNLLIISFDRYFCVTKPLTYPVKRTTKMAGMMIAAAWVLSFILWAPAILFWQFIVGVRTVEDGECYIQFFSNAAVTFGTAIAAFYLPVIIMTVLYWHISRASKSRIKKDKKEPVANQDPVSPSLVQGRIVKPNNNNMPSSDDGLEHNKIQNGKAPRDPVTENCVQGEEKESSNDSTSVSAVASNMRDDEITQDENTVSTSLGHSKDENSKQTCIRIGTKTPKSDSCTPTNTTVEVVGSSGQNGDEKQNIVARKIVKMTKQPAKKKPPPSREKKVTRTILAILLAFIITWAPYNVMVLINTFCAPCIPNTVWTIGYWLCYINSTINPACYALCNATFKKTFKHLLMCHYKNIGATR
# Description: as §1
# Muscarinic M4 = Muscarinic M4 (Homo sapiens, UniProt P08173); experiment: CEREP binding profile: M4
# Description: as §1
# Neurokinin NK1 = Neurokinin NK1 (Homo sapiens, UniProt P25103); experiment: CEREP binding profile: NK1
# Description: as §1
# Neurotensin NTS1 (NT1) = Neurotensin NTS1 (NT1) (Homo sapiens, UniProt P30989); experiment: CEREP binding profile: NTS1
# Description: as §1
# [1] = biological target: Opioid and opioid-like kappa (KOP) (Rattus norvegicus, UniProt P34975); experiment: CEREP binding profile: kappa; conditions: 10 μM
# Description: as §1
# Prostanoid EP4 = Prostanoid EP4 (Homo sapiens, UniProt P35408); experiment: CEREP binding profile: EP4
# Chain of Prostanoid EP4 (P35408 whole entry): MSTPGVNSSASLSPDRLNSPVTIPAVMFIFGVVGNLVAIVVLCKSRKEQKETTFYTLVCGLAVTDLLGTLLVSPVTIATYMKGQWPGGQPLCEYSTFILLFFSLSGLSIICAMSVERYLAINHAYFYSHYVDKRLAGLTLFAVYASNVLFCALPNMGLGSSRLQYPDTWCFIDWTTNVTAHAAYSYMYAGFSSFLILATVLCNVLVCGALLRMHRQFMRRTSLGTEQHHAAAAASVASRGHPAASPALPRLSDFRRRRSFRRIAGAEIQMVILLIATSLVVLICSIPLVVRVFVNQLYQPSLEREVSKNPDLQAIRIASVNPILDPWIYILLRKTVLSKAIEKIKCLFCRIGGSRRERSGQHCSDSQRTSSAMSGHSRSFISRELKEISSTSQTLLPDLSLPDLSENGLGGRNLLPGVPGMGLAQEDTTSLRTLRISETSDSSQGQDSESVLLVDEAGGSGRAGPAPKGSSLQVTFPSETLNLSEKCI
# Description: as §1
# Purinergic P2Y = experiment: CEREP binding profile: P2Y; conditions: 10 μM
# Description: as §1
# Serotonin 5-HT1A = biological target: T9, Serotonin 5-HT1A (Homo sapiens, UniProt P08908); experiment: CEREP binding profile: 5-HT1A
# T9 construct: CEREP (contract panel)
# T9 sequence (P08908 whole entry): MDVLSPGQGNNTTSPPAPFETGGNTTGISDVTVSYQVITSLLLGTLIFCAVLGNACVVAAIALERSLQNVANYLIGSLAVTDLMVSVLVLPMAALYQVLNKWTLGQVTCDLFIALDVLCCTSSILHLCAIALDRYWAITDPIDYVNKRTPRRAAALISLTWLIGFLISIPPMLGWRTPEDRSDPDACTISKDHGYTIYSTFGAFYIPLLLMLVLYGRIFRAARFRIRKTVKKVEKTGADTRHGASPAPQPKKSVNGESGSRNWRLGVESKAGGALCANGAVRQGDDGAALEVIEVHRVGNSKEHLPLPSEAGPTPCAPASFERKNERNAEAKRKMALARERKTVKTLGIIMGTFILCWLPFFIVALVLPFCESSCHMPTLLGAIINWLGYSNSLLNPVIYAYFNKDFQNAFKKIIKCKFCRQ
# Description: as §1
# Serotonin 5-HT7 = biological target: T10, Serotonin 5-HT7 (Homo sapiens, UniProt P34969); experiment: CEREP binding profile: 5-HT7
# T10 construct: CEREP (contract panel)
# T10 sequence (P34969 whole entry): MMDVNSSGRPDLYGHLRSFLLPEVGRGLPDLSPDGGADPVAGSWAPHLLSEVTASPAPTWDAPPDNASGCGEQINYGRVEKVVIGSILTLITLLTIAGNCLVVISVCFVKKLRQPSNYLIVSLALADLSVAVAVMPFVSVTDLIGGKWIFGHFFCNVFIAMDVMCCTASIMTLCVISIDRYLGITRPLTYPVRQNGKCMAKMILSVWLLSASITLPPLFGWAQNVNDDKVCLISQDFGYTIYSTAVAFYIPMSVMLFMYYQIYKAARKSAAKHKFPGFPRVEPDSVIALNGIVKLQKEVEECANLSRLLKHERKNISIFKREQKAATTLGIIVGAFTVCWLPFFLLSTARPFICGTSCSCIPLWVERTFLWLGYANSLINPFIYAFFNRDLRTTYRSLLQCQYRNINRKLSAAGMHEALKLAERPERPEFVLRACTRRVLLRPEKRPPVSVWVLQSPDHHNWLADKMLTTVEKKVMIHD
# Description: as §1
# K+ channels KV = experiment: CEREP binding profile: KV; conditions: 10 μM
# Description: as §1
# K+ channels SKCa = experiment: CEREP binding profile: SKCa; conditions: 10 μM
# Description: as §1
# Na+ channels Na+-site 2 = experiment: CEREP binding profile: Na+-site 2; conditions: 10 μM
# Description: as §1
# Transporters Dopamine = biological target: T11, Transporters Dopamine (Homo sapiens, UniProt Q01959); experiment: CEREP binding profile: dopamine transporter
# T11 construct: CEREP (contract panel)
# T11 sequence (Q01959 whole entry): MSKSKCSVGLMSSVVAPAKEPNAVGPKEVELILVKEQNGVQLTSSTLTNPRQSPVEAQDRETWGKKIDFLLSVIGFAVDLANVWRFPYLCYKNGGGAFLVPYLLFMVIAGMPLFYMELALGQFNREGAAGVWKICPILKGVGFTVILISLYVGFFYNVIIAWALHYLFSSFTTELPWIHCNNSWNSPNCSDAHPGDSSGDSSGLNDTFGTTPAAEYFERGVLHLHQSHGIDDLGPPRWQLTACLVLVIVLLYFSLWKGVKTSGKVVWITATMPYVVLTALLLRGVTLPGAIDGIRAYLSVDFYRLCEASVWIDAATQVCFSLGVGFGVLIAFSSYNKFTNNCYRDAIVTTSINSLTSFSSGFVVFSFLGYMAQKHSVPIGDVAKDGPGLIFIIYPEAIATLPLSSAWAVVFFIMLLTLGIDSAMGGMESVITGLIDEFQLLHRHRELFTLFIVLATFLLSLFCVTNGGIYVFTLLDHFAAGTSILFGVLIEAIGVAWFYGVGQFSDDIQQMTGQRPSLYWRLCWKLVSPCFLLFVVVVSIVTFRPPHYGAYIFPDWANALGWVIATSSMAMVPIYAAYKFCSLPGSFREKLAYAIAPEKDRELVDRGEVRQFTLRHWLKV
# Description: as §1
# [2] = biological target: T12, Transporters Norepinephrine (Homo sapiens, UniProt P23975); experiment: CEREP binding profile: norepinephrine transporter
# T12 construct: CEREP (contract panel)
# T12 sequence (P23975 whole entry): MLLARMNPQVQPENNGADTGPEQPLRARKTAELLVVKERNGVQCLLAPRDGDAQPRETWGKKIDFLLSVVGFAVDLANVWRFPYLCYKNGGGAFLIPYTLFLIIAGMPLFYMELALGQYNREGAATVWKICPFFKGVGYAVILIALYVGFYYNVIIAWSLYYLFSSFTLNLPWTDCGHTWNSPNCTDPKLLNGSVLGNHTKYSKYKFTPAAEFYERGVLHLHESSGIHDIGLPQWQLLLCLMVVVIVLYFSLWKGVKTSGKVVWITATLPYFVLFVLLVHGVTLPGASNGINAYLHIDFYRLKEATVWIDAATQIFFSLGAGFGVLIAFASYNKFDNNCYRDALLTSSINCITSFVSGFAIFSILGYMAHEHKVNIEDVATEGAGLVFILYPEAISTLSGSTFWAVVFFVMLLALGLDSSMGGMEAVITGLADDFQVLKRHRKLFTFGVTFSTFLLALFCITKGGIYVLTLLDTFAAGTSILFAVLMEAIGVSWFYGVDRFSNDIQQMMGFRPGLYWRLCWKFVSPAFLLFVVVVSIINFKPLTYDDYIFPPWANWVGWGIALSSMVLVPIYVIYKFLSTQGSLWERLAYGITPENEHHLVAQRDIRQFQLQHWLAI
# Description: as §1
# Growth factors PDGF = experiment: CEREP binding profile: PDGF; conditions: 10 μM
# Description: as §1
# Purinergic channels P2X = experiment: CEREP binding profile: P2X; conditions: 10 μM
# Description: as §1
# Serotonin 5-HT3 = biological target: T13, Serotonin 5-HT3 (Homo sapiens, UniProt P46098); experiment: CEREP binding profile: 5-HT3
# T13 construct: CEREP
# Description: as §1
# Sigma sigma = experiment: CEREP binding profile: sigma; conditions: 10 μM
# Description: as §1
# [3] = biological target: T14, Steroid nuclear receptors PR (Homo sapiens, UniProt P06401); experiment: Binding: PR
# T14 construct: CEREP
# T14 sequence (P06401 1-933): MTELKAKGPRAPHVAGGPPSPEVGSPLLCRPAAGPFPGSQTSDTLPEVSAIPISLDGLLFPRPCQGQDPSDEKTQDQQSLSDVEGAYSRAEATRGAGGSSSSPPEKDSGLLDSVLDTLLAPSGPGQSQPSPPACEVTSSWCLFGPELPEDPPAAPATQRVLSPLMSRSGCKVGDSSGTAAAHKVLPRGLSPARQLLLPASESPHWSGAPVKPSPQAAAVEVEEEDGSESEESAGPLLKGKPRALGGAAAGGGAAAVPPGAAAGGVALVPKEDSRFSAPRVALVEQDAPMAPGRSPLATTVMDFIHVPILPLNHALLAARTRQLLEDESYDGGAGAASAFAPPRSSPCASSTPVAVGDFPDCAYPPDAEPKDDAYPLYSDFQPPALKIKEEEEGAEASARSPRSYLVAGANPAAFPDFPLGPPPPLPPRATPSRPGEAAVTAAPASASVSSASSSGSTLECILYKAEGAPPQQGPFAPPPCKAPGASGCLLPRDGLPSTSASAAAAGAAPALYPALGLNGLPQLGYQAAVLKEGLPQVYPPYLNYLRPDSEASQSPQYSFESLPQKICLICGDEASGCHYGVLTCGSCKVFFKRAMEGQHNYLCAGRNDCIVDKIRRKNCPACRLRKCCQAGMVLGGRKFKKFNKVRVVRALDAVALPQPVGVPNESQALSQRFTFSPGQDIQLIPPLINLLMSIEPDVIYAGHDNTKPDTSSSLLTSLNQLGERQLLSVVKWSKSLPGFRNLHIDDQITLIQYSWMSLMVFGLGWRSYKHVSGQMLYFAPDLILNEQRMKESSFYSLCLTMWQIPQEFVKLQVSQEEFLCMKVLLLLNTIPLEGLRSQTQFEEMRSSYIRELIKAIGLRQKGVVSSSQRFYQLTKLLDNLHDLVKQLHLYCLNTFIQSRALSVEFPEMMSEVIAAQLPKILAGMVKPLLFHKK
# Description: as §1
# [4] = biological target: T15, Non-steroid nuclear receptors PPAR gamma (Homo sapiens, UniProt P37231); experiment: CEREP binding profile: PPAR gamma
# T15 construct: CEREP
# T15 sequence (P37231 whole entry): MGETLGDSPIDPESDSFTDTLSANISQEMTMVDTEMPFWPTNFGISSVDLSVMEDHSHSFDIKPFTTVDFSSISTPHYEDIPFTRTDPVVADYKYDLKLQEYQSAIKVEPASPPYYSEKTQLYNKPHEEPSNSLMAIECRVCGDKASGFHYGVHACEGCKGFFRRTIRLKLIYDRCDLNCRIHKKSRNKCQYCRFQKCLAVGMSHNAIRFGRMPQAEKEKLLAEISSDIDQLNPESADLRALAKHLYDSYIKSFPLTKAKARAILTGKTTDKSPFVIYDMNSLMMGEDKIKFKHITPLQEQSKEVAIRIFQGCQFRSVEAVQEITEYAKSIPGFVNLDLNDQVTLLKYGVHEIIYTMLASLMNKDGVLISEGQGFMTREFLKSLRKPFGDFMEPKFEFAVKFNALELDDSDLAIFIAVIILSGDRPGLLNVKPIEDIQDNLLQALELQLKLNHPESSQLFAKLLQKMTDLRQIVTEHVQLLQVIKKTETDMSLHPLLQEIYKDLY
# Description: as §1
# T1 sequence (P30542 whole entry): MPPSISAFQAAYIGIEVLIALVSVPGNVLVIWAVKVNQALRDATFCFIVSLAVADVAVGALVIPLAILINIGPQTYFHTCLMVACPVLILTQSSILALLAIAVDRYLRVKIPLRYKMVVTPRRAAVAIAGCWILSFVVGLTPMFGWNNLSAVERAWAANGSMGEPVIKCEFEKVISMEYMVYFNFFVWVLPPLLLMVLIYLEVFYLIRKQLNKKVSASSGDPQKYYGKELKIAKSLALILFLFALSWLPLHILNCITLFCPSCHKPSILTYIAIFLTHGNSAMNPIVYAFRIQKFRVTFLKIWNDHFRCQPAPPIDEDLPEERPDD
Compound,inhibition at 10 µM (Adenosine A1) [%],inhibition at 10 µM (Angiotensin-II AT1) [%],inhibition at 10 µM (Angiotensin-II AT2) [%],% Inhibition (Bombesin BB) [%],inhibition at 10 µM (Bradykinin B2) [%],inhibition at 10 µM (Chemokines CXCR2) [%],inhibition at 10 µM (Endothelin ETA) [%],inhibition at 10 µM (Endothelin ETB) [%],inhibition at 10 µM (Melatonin MT1 (ML1A)) [%],inhibition at 10 µM (Neurokinin NK1) [%],inhibition at 10 µM (Neurotensin NTS1 (NT1)) [%],% Inhibition [1] [%],inhibition at 10 µM (Prostanoid EP4) [%],% Inhibition (Purinergic P2Y) [%],% Inhibition (K+ channels KV) [%],% Inhibition (K+ channels SKCa) [%],% Inhibition (Na+ channels Na+-site 2) [%],Inhibition % (Growth factors PDGF) [%],Inhibition % (Purinergic channels P2X) [%],Inhibition % (Sigma sigma) [%],further results
"CC(=O)[C@@]1(C)CC[C@H]2[C@@H]3CC=C4C[C@@H](OCc5ccccc5)CC[C@]4(C)[C@H]3CC[C@@]21C [3Bn17MeP, 3β-benzyloxy, 17α-methyl-pregn-5-en-20-one]",-27,-13,-5,−6,0,0,1,-13,-8,8,-13,−17,25,−2,−15,−3,−12,−13,8,9,% Inhibition (Adrenergic beta2; 10 μM): −4%; inhibition at 10 µM (Muscarinic M1): -25%; inhibition at 10 µM (Muscarinic M2): -17%; inhibition at 10 µM (Muscarinic M4): 2%; % Inhibition (Serotonin 5-HT1A; 10 μM): 25%; % Inhibition (Serotonin 5-HT7; 10 μM): 8%; inhibition at 10 µM (Transporters Dopamine): -23%; inhibition at 10 µM [2]: -1%; Inhibition % (Serotonin 5-HT3; 10 μM): 4%; inhibition at 10 µM [3]: 20%; inhibition at 10 µM [4]: -12%
"CC(=O)[C@H]1CC[C@H]2[C@@H]3CC=C4C[C@@H](O)CC[C@]4(C)[C@H]3CC[C@]12C [pregnenolone, reference compound]",-25,-28,-18,−18,-9,-10,-3,4,26,17,-19,38,21,−3,−23,−8,23,−15,13,26,"inhibition at 10 µM (Adrenergic beta2): -5%; inhibition at 10 µM (Muscarinic M1; M1, 10 μM, read-out: % Inhibition): -14%; inhibition at 10 µM (Muscarinic M2; M2, 10 μM, read-out: % Inhibition): -4%; inhibition at 10 µM (Muscarinic M4; M4, 10 μM, read-out: % Inhibition): -4%; inhibition at 10 µM (Serotonin 5-HT1A): 12%; inhibition at 10 µM (Serotonin 5-HT7): 11%; inhibition at 10 µM (Transporters Dopamine; dopamine transporter, 10 μM, read-out: % Inhibition): -12%; inhibition at 10 µM ([2]; norepinephrine transporter, 10 μM, read-out: % Inhibition): -12%; inhibition at 10 µM (Serotonin 5-HT3): 6%; inhibition at 10 µM [3]: > 80%; Inhibition % ([3]; 10 μM): 87%; inhibition at 10 µM [4]: 4%"
